Holding throughout (assay): NCI-60 cell line screen, 48 h
Experiment [1] deals with EKVX NSCLC.
For experiment [2], the system named is SNB-75 CNS.
In experiment [3] the test system is 786-0 renal.
In experiment [4] the test system is NCI-H226 lung.
Experiment [5] deals with A498 renal.
For experiment [6], the system named is OVCAR-4 ovarian.
Experiment [7] concerns SK-MEL-28 melanoma.
Experiment [8] concerns HS 578T breast.
Experiment [9] relates to PC-3 prostate.
Experiment [10] concerns T-47D breast.

The structures appear in SMILES notation.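 Where inhibition never reached the appropriate level, the endpoint shown equals the highest concentration tested. Otherwise, values were interpolated linearly from a five-concentration, 48-hour dose response in 96-well plates. Here, GI50 denotes the concentration required for 50% inhibition of growth. TGI marks complete inhibition of growth.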

In the case of `CCOC(=O)C1SC(=Nc2ccc(Cl)c(Cl)c2)N=C1C` (stereo not drawn), the TGI was greater than 100 µM in [1]; 58.9 µM in experiment [2]; 31.3 µM in experiment [3]; 67.7 µM in [4]; 84.3 µM in experiment [5]; 62 µM in experiment [6]. The compound further had a TGI in experiment [7] greater than 100 µM.
For the compound `CCN(CCCl)CCCNc1c2ccccc2nc2ccc(OC)cc12`, the GI50 in [1] is 557 µM; in experiment [2] it was 532 µM; in experiment [3] it was 102 µM; in experiment [4] it was 580 µM; in experiment [6], 360 µM; in experiment [7] it was 665 µM. The TGI in experiment [5] is 356 µM.
Consider `c1ccc2c(c1)[nH]c1cnc3c4cccnc4[nH]c3c12`, for which the TGI in experiment [1] was 39 µM; in experiment [2], 32.6 µM; in experiment [3], 31.7 µM; in experiment [4] it was 64 µM; in [5], greater than 100 µM; in experiment [6], 32.6 µM. Besides, the TGI in experiment [7] came to 38.4 µM.
For the compound `O=C1CN(C(=O)c2ccccc2)Cc2[nH]c3ccccc3c21`, the TGI in [1], in [2], in experiment [3], in experiment [4], in experiment [6] and in experiment [7] was greater than 100 µM in each case.
On to `CCCCOC(=O)NC(=O)c1cn(CCSCCOC(=O)NCCCCCCNC(=O)OCCSCCn2cc(C(=O)NC(=O)OCCCC)c(=O)[nH]c2=O)c(=O)[nH]c1=O`, for which the TGI was greater than 100 µM in [1]; greater than 100 µM in experiment [2]; greater than 100 µM in experiment [3]; 64.7 µM in [5]; greater than 100 µM in [6]; greater than 100 µM in experiment [7].
Regarding `O=C(OCC1CO1)c1cccs1` (stereo not drawn), the TGI in [1], in experiment [2], in [3], in experiment [6] and in experiment [7] was greater than 100 µM in each case.
As to `O=C(O)c1cc2cc(OCc3ccccc3)c(OCc3ccccc3)cc2[nH]1`, the GI50 in [1] was 17.8 µM; in experiment [2], 17.3 µM; in experiment [8], 22 µM; in experiment [9] it was 23 µM; in [3], 22.7 µM; in experiment [10] it was 23.9 µM. For the same compound, the GI50 was 17.1 µM in experiment [4], 34.9 µM in [6] and 19.5 µM in experiment [7]. Besides, the TGI is 38.9 µM in [1]; 55.6 µM in [2]; 64.5 µM in [8]; 68.5 µM in [9]; 48.4 µM in [3]; greater than 100 µM in experiment [10]. Further, the TGI in [4] is 35.7 µM; in experiment [6], greater than 100 µM; in [7], 43.2 µM.
With `Nc1c(C(=O)Nc2ccccc2)[n+]([O-])c2ccccc2[n+]1[O-]`, the TGI in [1] is 56.9 µM; in [2], 34 µM; in [3], 27.1 µM; in experiment [4], 76.3 µM; in experiment [5], 31 µM; in experiment [6], 33.5 µM. The TGI in experiment [7] came to 34.9 µM.
For the compound `CCOC(=O)/C=C/C(C(=O)/C=C/c1ccc(O)c(OC)c1)=C(O)\C=C\c1ccc(O)c(OC)c1`, the GI50 was 5.75 µM in experiment [1]; 11.2 µM in experiment [2]; 4.25 µM in experiment [8]; 12.8 µM in experiment [9]; 1.98 µM in experiment [3]; 8.07 µM in [10]. Further, the GI50 in [4] is 1.67 µM; in experiment [6], 7.36 µM; in experiment [7], 2 µM. Besides, the TGI is 42 µM in experiment [1]; 28.7 µM in experiment [2]; 41.7 µM in experiment [8]; greater than 100 µM in [9]; 6.68 µM in experiment [3]; greater than 100 µM in experiment [10]. Moreover, the TGI in [4] was 5.1 µM; in experiment [6], 25.7 µM; in experiment [7] it was 6.09 µM.
On to `Fc1ccc(C2SCc3nc4ccccc4n32)cc1` (stereo not drawn), for which the TGI is greater than 100 µM in experiment [1]; 9.55 µM in experiment [2]; greater than 100 µM in experiment [3]; 92.4 µM in experiment [4]; greater than 100 µM in [6]; 76.5 µM in experiment [7].
For `Cc1cccc(C2=NC(C)(C)C(C)(C)N=C2c2cccc(C)n2)n1`, the TGI in [1], in experiment [2], in [3], in experiment [4], in [5] and in experiment [6] was greater than 100 µM each time. The TGI in experiment [7] is greater than 100 µM.
As to `C=CCC(N[C@H](CO)c1ccccc1)c1cn(C(=O)OCC)c2ccccc12` (stereo partly drawn), the GI50 is 17.5 µM in experiment [1]; 23 µM in experiment [2]; 19.4 µM in experiment [8]; 23.2 µM in experiment [9]; 15.2 µM in experiment [3]; 25.1 µM in experiment [10]. Further, the GI50 in experiment [4] is 15.2 µM; in experiment [6], 37.3 µM; in experiment [7], 28.4 µM. The TGI in [1] is 37.3 µM; in [2] it was 74.3 µM; in experiment [8], 46 µM; in [9] it was 69.3 µM; in [3], 28.9 µM; in experiment [10], greater than 100 µM. Further, the TGI in experiment [4] is 31 µM; in [6], greater than 100 µM; in experiment [7], 66.1 µM.
In the case of `CC(C)(C)C(=O)ON1N=NC2C3CC(OCc4ccccc4)(OCc4ccccc4)C(O3)C21` (stereo not drawn), the TGI in experiment [2] is 69.5 µM; in experiment [3], 36.4 µM; in experiment [4], 40 µM; in [5] it was greater than 100 µM; in [6] it was 82.4 µM; in [7], 35.3 µM.
As to `O=C(Cc1cccc(OC(F)(F)F)c1)Nc1ccc(CCCCc2nnc(NC(=O)Cc3ccccn3)s2)nn1`, the GI50 is 13.3 µM in [1]; 11.1 µM in experiment [2]; 13.8 µM in experiment [8]; 18.3 µM in experiment [9]; 11.4 µM in experiment [3]; 3.46 µM in experiment [10]. Also, the GI50 in experiment [4] is 15.1 µM; in [6] it was 7.23 µM; in experiment [7], 93.1 µM. Besides, the TGI in experiment [1] was 68.7 µM; in [2] it was 38.6 µM; in experiment [8], 40.2 µM; in experiment [9], greater than 100 µM; in experiment [3], 27.5 µM; in experiment [10], 26.5 µM. For the same compound, the TGI in experiment [4] is 54.1 µM; in [6], 29 µM; in experiment [7] it was greater than 100 µM.
Consider `O=C1Nc2cc([N+](=O)[O-])ccc2NC1/C(=N\Nc1ccccc1)C(O)c1cccc([N+](=O)[O-])c1` (stereo not drawn), for which the TGI in experiment [1], in experiment [2], in experiment [3], in experiment [4], in experiment [6] and in experiment [7] was greater than 100 µM each time.
Turning to `Cc1cc(NS(=O)(=O)c2ccc(NC(=O)c3cccc4c(Nc5ccc(S(=O)(=O)N=C(N)N)cc5)c5ccccc5nc34)cc2)no1`, the TGI in [1], in experiment [2], in experiment [3], in experiment [4], in experiment [5] and in [6] was greater than 100 µM each time. Moreover, in [7], the TGI was greater than 100 µM.
For `CN1CC(C(=O)C2C(=O)c3ccccc3C2=O)C(=O)C(=O)C(C(=O)C2C(=O)c3ccccc3C2=O)C1` (stereo not drawn), the TGI in experiment [2], in [3], in experiment [5] and in experiment [7] was greater than 100 µM throughout.
For `O=C(C(=O)N1CC2C=CC1CC2)c1c[nH]c2ccccc12` (stereo not drawn), the TGI in experiment [2], in experiment [3], in [4], in experiment [5] and in experiment [6] was greater than 100 µM in each case.
On to `C1OC1CO[C@@H]1CO[C@H]2[C@@H]1OC[C@H]2OCC1CO1` (stereo partly drawn), for which the TGI in [1], in experiment [2], in experiment [3], in [4], in experiment [5] and in experiment [6] was greater than 100 µM in each case. For the same compound, the TGI in experiment [7] is greater than 100 µM.
Regarding `CCOC(=O)C(=Cc1ccc(C(=O)OC)cc1)C(=O)OCC`, the TGI in experiment [1] was 26.9 µM; in experiment [2], 4.65 µM; in experiment [3], 3.15 µM; in experiment [4] it was 4.45 µM; in [5], 26 µM; in experiment [6] it was 14 µM. For the same compound, the TGI in experiment [7] amounted to 3.34 µM.
For `CCCCOP1(=O)C=C(C)C(=C(Cl)Cl)C(C)=C1` (stereo not drawn), the TGI in experiment [1] was greater than 100 µM; in experiment [2], greater than 94.4 µM; in experiment [3] it was 53 µM; in [4] it was 13 µM; in experiment [6], greater than 91.1 µM; in experiment [7], 23.9 µM.
Take `S=C1Nc2ccc(Cl)cc2C2(c3ccccc3)N3CCN=C3NN12` (stereo not drawn): the GI50 in [1] was 55.7 µM; in experiment [2], 17.6 µM; in [9], 39.3 µM; in experiment [3], 38.3 µM; in [10], 30.8 µM; in [4], 33.9 µM. The results for the GI50 in [6] and in [7] were 26.1 µM and 30.9 µM, respectively. For the same compound, the TGI in experiment [1] was greater than 100 µM; in experiment [2] it was greater than 100 µM; in experiment [9], greater than 100 µM; in experiment [3] it was greater than 100 µM; in experiment [10], 99 µM; in experiment [4], greater than 100 µM. Moreover, the TGI in [6] and in experiment [7] was greater than 100 µM throughout.
With `NC(=O)C(c1ccccc1)N1CCOCC1` (stereo not drawn), the TGI in experiment [2], in experiment [3], in experiment [4], in experiment [5], in [6] and in experiment [7] was greater than 100 µM each time.
In the case of `COc1ccccc1NC(=O)C1=C(C)NC(C)=C(C(=O)Nc2ccccc2OC)C1c1ccc(C)cc1`, the TGI in experiment [1] was greater than 100 µM; in [2] it was greater than 100 µM; in experiment [3] it was greater than 100 µM; in experiment [4], greater than 100 µM; in experiment [5] it was 82.7 µM; in experiment [6], greater than 100 µM. This compound also registered a TGI in experiment [7] greater than 100 µM.
For the compound `CCN(c1ccc(Br)cc1)c1c(Br)c(=O)nc2ccccn12`, the TGI in experiment [1], in experiment [2], in [3], in experiment [4], in [5] and in [7] was greater than 100 µM in each case.
Consider `COc1cccc(Cc2c3cc(OC)ccc3cc[n+]2C)c1`, for which the TGI in experiment [1], in [2], in experiment [3], in experiment [5], in [6] and in experiment [7] was greater than 100 µM in each case.
Take `CC(=O)OC1(C)C(=O)OC1(C)C(C)=O` (stereo not drawn): the TGI in experiment [1], in [2], in experiment [3], in experiment [4], in experiment [5] and in experiment [6] was greater than 100 µM each time. In addition, in experiment [7], the TGI is greater than 100 µM.
In the case of `CC1=CCC23C(C1)OC(Br)(C=CC2(C)O)C3(C)C` (stereo not drawn), the TGI in experiment [1], in experiment [2], in [3], in experiment [4], in [5] and in experiment [6] was greater than 100 µM throughout. Besides, the TGI in experiment [7] was greater than 100 µM.
On to `O=C(CC(=O)N1N=C(N2c3ccccc3Sc3ccccc32)CC1c1ccccc1)Nc1ccc(Cl)cc1` (stereo not drawn), for which the TGI in experiment [1], in experiment [2], in experiment [3], in experiment [5], in experiment [6] and in experiment [7] was greater than 100 µM in each case.
Turning to `CCSC1=C(C)N(C=NC(C)(C)C)CC1`, the TGI in [1], in [2], in [3], in experiment [4], in experiment [5] and in experiment [6] was greater than 100 µM in each case. For the same compound, the TGI in experiment [7] is greater than 100 µM.
`O=C1c2c(n(Cc3ccccc3)c(=O)n2Cc2ccccc2)C(=O)N1Cc1ccccc1`: the TGI in experiment [1], in experiment [2], in experiment [3], in [4], in experiment [5] and in experiment [6] was greater than 100 µM throughout. In experiment [7], the TGI was greater than 100 µM.

For the origin of these results see PubChem BioAssay (NCI).
